Data as given in article PMC4211880, “α-Mangostin Disrupts the Development of Streptococcus mutans Biofilms and Facilitates Its Mechanical Removal” (PLoS ONE, 2014).

Experiments:
GtfC = molecular target: T1, GtfC (Streptococcus mutans, UniProt P13470); test: incorporation of […]-glucose from labelled sucrose into glucans, scintillation counting; format: biochemical
T1 construct: secreted enzyme from culture supernatant of S. mutans WHB 410 (expresses gtfC only); purified to near homogeneity by hydroxyapatite chromatography
T1 sequence (P13470 35-1455): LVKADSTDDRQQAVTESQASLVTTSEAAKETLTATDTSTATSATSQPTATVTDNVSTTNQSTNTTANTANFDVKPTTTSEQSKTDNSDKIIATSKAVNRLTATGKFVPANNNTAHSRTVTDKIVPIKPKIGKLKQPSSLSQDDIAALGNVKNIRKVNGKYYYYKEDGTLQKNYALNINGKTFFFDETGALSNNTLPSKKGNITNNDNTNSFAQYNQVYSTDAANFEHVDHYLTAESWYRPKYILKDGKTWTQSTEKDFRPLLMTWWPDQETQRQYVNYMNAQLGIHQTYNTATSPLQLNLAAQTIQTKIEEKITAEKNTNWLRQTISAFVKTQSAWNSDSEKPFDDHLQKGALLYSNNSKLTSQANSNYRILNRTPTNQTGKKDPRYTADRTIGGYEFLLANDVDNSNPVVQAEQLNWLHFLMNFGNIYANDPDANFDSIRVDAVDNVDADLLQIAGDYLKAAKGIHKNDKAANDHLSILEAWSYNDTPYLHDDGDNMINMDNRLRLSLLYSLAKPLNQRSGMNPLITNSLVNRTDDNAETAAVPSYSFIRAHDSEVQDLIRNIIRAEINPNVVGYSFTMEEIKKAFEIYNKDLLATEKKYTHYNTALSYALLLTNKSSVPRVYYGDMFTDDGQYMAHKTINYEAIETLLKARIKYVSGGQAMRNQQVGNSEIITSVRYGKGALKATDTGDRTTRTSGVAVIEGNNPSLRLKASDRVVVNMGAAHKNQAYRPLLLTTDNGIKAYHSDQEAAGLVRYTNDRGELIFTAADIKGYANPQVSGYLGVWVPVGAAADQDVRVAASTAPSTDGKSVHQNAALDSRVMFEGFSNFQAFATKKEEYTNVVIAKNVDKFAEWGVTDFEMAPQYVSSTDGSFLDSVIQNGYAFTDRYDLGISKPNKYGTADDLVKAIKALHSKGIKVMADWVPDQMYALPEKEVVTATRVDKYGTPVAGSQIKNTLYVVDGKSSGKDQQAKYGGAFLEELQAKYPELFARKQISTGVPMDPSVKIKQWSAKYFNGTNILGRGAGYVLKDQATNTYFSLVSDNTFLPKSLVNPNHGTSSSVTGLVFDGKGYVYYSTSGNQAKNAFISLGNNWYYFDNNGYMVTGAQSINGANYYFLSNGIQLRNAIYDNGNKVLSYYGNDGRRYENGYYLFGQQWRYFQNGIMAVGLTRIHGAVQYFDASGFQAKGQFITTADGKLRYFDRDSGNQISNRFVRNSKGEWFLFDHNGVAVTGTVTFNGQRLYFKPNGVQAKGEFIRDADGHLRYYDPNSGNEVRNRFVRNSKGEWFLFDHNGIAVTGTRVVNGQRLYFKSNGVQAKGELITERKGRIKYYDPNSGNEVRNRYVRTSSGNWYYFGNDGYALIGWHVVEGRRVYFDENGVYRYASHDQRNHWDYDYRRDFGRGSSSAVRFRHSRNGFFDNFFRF

GtfB = molecular target: T2, GtfB (Streptococcus mutans, UniProt P08987); test: as above; format: biochemical
T2 construct: secreted enzyme from culture supernatant of S. milleri KSB8 carrying gtfB of S. mutans GS-5; purified to near homogeneity by hydroxyapatite chromatography
T2 sequence (P08987 35-1476): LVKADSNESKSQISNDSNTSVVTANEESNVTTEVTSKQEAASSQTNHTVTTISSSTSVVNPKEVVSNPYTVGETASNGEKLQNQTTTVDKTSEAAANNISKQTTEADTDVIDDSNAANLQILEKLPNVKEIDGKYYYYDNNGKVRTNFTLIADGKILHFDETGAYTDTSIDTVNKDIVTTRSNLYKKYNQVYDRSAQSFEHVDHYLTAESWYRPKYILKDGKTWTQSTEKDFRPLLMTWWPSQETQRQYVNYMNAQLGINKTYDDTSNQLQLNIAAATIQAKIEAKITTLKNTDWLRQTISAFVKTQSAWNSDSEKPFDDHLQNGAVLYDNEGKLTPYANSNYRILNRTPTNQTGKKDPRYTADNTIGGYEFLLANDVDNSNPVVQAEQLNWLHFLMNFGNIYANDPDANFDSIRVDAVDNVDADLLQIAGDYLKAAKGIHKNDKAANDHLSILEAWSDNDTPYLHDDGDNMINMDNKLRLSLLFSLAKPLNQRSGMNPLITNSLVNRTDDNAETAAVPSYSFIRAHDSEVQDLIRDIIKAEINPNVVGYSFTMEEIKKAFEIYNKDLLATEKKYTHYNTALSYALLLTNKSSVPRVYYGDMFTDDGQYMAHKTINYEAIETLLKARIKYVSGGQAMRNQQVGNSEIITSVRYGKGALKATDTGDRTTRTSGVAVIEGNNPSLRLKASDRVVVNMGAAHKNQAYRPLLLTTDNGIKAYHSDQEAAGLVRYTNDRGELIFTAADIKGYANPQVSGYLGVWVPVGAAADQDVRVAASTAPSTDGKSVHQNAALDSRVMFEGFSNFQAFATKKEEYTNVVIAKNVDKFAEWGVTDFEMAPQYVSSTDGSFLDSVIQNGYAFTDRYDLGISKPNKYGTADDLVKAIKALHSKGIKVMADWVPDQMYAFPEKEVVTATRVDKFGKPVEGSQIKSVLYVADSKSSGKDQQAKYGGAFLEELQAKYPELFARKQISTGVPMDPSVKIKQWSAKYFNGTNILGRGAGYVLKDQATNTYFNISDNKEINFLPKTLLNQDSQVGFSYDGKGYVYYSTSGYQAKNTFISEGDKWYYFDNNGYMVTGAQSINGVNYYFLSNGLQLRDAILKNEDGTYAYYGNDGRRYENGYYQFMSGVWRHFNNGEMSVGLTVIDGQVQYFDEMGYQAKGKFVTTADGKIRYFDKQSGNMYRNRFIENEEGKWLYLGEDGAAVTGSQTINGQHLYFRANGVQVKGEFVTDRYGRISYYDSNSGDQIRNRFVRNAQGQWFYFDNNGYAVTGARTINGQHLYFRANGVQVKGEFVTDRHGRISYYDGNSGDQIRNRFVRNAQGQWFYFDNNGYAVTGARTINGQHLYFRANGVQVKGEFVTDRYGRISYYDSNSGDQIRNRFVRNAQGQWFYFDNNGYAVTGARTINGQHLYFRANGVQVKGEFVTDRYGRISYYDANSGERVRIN

Question: Which inhibition at 150 µM (GtfC) does the source give for `COc1c(O)cc2oc3cc(O)c(CC=C(C)C)c(O)c3c(=O)c2c1CC=C(C)C` [αMG, α-mangostin] here?
Answer: > 70%

Question: And the inhibition at 150 µM (GtfB)?
Answer: > 70%
